Assay results published in patent publication US5110976A, “Insecticidal composition comprising more than one active ingredient” (priority 1985, dated 1992).
Converted amounts (≈) assume the structure as drawn.

Experiments:
[1] = test system: Musca domestica; assay: Filter paper disc contact test (Table 11); assay type: in vivo, house fly (Musca domestica); settings: Musca domestica, 24 h
Protocol: In Table 1 the activity of various stereoisomers of cypermethrin on the house fly (Musca domestica) is shown.
(§1) The active ingredient is dissolved in a 1:2 mixture of oil and acetone; filter paper discs (Whatman No. 1, diameter 9 cm) are impregnated with the solutions of the corresponding stereoisomers and enantiomer-pairs, respectively. The acetone is allowed to evaporate, whereupon the insects are exposed to filter papers discs placed in Petri-dishes. Three parallels are used on each dose and 15 insects are placed into each Petri-dish. The percental mortality is determined after 24 hours. The corrected percent mortality is calculated by means of the Abbot Formula.

[2] = test system: Colorado potato beetle; assay: Topical test on Colorado potato beetle (Table 14); assay type: in vivo, Colorado potato beetle (Leptinotersa decemlineata), imago; settings: Leptinotarsa decemlineata, topical
Protocol: In Table 14 the activity on Colorado potato beetle is shown.
The test materials are dissolved in 2-ethoxyethanol (Cellosolve). One 0.3 μl drop of the solution is applied to the abdominal sterna of the imago. The treatment is carried out by using 2 parallels and 10 insects for each dose. […]

[3] = test system: Musca domestica; assay: Comparative contact test (Table 15); assay type: in vivo, house fly (Musca domestica), imago; settings: 24 h
Protocol: as §1
(§2) The comparative test of Ia, Ib and a 40:60 mixture of Ia:Ib is carried out on bean weevil (Acanthoscelides obtectus), flour-beetle, (Tribolium confusum), house fly (Musca domestica) and sheep maggot fly (Lucillia sericata). The test method described is Example 41.

[4] = test system: Tribolium confusum; assay: Contact test, mixtures of Ia and Ib of various ratio (Table 13); assay type: in vivo, flour beetle (Tribolium confusum); settings: Tribolium confusum, 24 h
Protocol: as §1
In Table 13 the insecticidal effect of mixtures of enantiomer-pairs Ia and Ib of various ratio is shown on flour beetle (Tribolium confusum). The test method is that disclosed in Example 43.

[5] = test system: T. confusum; assay: Activity as function of time, toxic symptoms (Table 16); assay type: in vivo, flour beetle (T. confusum), imagos
Protocol: as §1
Activity of cypermethrin stereoisomer-pairs as function of time on flour beetle (T. Confusum).
Flour beetle (T. confusum) imagos are exposed in Petri-dishes according to the method described in Example 43. For each dose 3 parallels are used and 15 animals are applied for each parallel test. In each point of time the insects lying on their backs are counted and the percental results are expressed in Table 16.

[6] = test system: Lucillia sericata; assay: Comparative contact test (Table 15); assay type: in vivo, sheep maggot fly (Lucillia sericata), imago; design: key: % mortality after 24 h, Abbott-corrected; settings: 1440 min
Protocol: as §1, §2

[7] = test system: Acanthoscelides obtectus; assay: Comparative contact test (Table 15); assay type: in vivo, bean weevil (Acanthoscelides obtectus), imago
Protocol: as §1, §2

[8] = test system: Hyphantria cunea; assay: Topical test on fall webworm (Table 18); assay type: in vivo, fall wetworm (Hyphantria cunea), L7-L8 larvae; settings: Hyphantria cunea, topical, 24 h
Protocol: The active ingredients are dissolved in 2-ethoxy-ethanol and the solutions are applied in the form of 0.2 μl droplets onto the back of fall wetworm (Hyphantria cunea) of L7 -L8 larvae stage. The treated worms are placed on strawberry leaves in Petri-dishes. The test is carried out by using […], 2 parallels and 10 insects for each dose. The killed worms are counted after 24 hours and the percental mortality rate is calculated.

[9] = test system: Tetranychus urticae; assay: Potter Tower spray on mite-infested leaves (Table 19); assay type: in vivo, mites (Tetranychus urticae); settings: Tetranychus urticae, 24 h, mortality after 24 hours; read-out: approx. LD50
Protocol: Leaves already infested with mites (Tetranychus urticae) were sprayed under Potter Tower. Mortality after 24 hours on the treated leaves was compared with the control.

[10] = test system: Tribolium confusum; assay: Contact test on Tribolium confusum (Table 12); assay type: in vivo
Protocol: as §1
It appears from Table 12 that the increased activity shown in Example 41 is due to the synergistic effect of the trans-isomers to Tribolium confusum.

[11] = test system: tribolium confusum; assay: Comparative contact test (Table 15); assay type: in vivo, flour-beetle (Tribolium confusum), imago; settings: 24 h
Protocol: as §1, §2

CC1(C)[C@H](C=C(Cl)Cl)[C@H]1C(=O)O[C@H](C#N)c1cccc(Oc2ccccc2)c1 (relative stereo) [Ib]
mortality at 40 µg/disc ([1]; 0.04 mg/disc): 32% | mortality at 110 µg/disc ([1]; 0.11 mg/disc): 62% | mortality at 330 µg/disc ([1]; 0.33 mg/disc): 95% | mortality at 1000 µg/disc ([1]; 1.00 mg/disc): 100% | mortality at 3000 µg/disc ([1]; 3.00 mg/disc): 100% | mortality at 0.05 µg/beetle ([2]; read-out: 24 hours' mortality %, 0.05 μg/beetle): 0% | mortality at 0.1 µg/beetle ([2]; read-out: 24 hours' mortality %, 0.10 μg/beetle): 25% | mortality at 0.2 µg/beetle ([2]; read-out: 24 hours' mortality %, 0.20 μg/beetle): 75% | mortality at 0.4 µg/beetle ([2]; read-out: 24 hours' mortality %, 0.40 μg/beetle): 85% | mortality at 20 µg/disc ([3]; 0.02 mg/disc): 0% | mortality at 70 µg/disc ([3]; 0.07 mg/disc): 18% | mortality at 220 µg/disc ([3]; 0.22 mg/disc): 67% | mortality at 670 µg/disc ([3]; 0.67 mg/disc): 100% | mortality at 2000 µg/disc ([3]; 2.0 mg/disc): 100% | mortality at 6000 µg/disc ([3]; 6.0 mg/disc): 100% | mortality at 60 µg/disc ([4]; 0.06 mg/disc): 46% | mortality at 250 µg/disc ([4]; 0.25 mg/disc): 100% | mortality at 20 µg/disc ([4]; 0.02 mg/disc): 8% | mortality at 1000 µg/disc ([4]; 1.00 mg/disc): 100% | % of insects showing toxic symptoms ([5]; 30 minutes): 0% | % of insects showing toxic symptoms ([5]; 30 minutes, 0.33 mg/disc): 0% | % of insects showing toxic symptoms ([5]; 30 minutes, 1.00 mg/disc): 47% | % of insects showing toxic symptoms ([5]; 30 minutes, 3.00 mg/disc): 61% | % of insects showing toxic symptoms ([5]; 60 minutes): 0% | % of insects showing toxic symptoms ([5]; 60 minutes, 0.33 mg/disc): 21% | % of insects showing toxic symptoms ([5]; 60 minutes, 1.00 mg/disc): 82% | % of insects showing toxic symptoms ([5]; 60 minutes, 3.00 mg/disc): 100% | % of insects showing toxic symptoms ([5]; 120 minutes): 28% | % of insects showing toxic symptoms ([5]; 120 minutes, 0.33 mg/disc): 100% | % of insects showing toxic symptoms ([5]; 120 minutes, 1.00 mg/disc): 100% | % of insects showing toxic symptoms ([5]; 120 minutes, 3.00 mg/disc): 100% | % of insects showing toxic symptoms ([5]; 180 minutes): 56% | % of insects showing toxic symptoms ([5]; 180 minutes, 0.33 mg/disc): 100% | % of insects showing toxic symptoms ([5]; 180 minutes, 1.00 mg/disc): 100% | % of insects showing toxic symptoms ([5]; 180 minutes, 3.00 mg/disc): 100% | mortality ([6]; 0.02 mg/disc): 22 | mortality ([6]; 0.07 mg/disc): 55 | mortality ([6]; 0.22 mg/disc): 70 | mortality ([6]; 0.67 mg/disc): 75 | mortality ([6]; 2.0 mg/disc): 100 | mortality ([6]; 6.0 mg/disc): 100 | mortality at 20 µg/disc ([7]; Acanthoscelides obtectus, 24 h, 0.02 mg/disc): 32% | mortality at 70 µg/disc ([7]; Acanthoscelides obtectus, 24 h, 0.07 mg/disc): 55% | mortality at 220 µg/disc ([7]; Acanthoscelides obtectus, 24 h, 0.22 mg/disc): 87% | mortality at 670 µg/disc ([7]; Acanthoscelides obtectus, 24 h, 0.67 mg/disc): 100% | mortality at 2000 µg/disc ([7]; Acanthoscelides obtectus, 24 h, 2.0 mg/disc): 100% | mortality at 6000 µg/disc ([7]; Acanthoscelides obtectus, 24 h, 6.0 mg/disc): 100% | comparative activity ([7]; Example 47, further insect species, Ib versus Ia): more active than Ia | mortality at 0.023 µg/disc ([8]; 0.023 (μg/disc)): 10% | mortality at 0.047 µg/disc ([8]; 0.047 (μg/disc)): 15% | mortality at 0.094 µg/disc ([8]; 0.094 (μg/disc)): 30% | mortality at 0.188 µg/disc ([8]; 0.188 (μg/disc)): 70% | mortality at 0.375 µg/disc ([8]; 0.375 (μg/disc)): 80% | LC50 [9]: ~0.34 mg/L (≈ 0.817 µM) | mortality at 110 µg/disc ([10]; Tribolium confusum, 24 h, 0.11 mg/disc): 64% | mortality at 330 µg/disc ([10]; Tribolium confusum, 24 h, 0.33 mg/disc): 89% | mortality at 1000 µg/disc ([10]; Tribolium confusum, 24 h, 1.00 mg/disc): 100% | mortality at 3000 µg/disc ([10]; Tribolium confusum, 24 h, 3.00 mg/disc): 100% | synergism between the members of the enantiomer-pair ([10]; in vivo): synergism observed | mortality at 20 µg/disc ([11]; 0.02 mg/disc): 14% | mortality at 70 µg/disc ([11]; 0.07 mg/disc): 73% | mortality at 220 µg/disc ([11]; 0.22 mg/disc): 100% | mortality at 670 µg/disc ([11]; 0.67 mg/disc): 100% | mortality at 2000 µg/disc ([11]; 2.0 mg/disc): 100% | mortality at 6000 µg/disc ([11]; 6.0 mg/disc): 100%
